The values below come from article PMC8365602 (Journal of Medicinal Chemistry, 2021).

Read-outs that look alike come from different tables or passages of the source.

In experiment [1] the target is T1, 5-LOX (Homo sapiens, UniProt P09917).
T1 sequence (P09917 1-674): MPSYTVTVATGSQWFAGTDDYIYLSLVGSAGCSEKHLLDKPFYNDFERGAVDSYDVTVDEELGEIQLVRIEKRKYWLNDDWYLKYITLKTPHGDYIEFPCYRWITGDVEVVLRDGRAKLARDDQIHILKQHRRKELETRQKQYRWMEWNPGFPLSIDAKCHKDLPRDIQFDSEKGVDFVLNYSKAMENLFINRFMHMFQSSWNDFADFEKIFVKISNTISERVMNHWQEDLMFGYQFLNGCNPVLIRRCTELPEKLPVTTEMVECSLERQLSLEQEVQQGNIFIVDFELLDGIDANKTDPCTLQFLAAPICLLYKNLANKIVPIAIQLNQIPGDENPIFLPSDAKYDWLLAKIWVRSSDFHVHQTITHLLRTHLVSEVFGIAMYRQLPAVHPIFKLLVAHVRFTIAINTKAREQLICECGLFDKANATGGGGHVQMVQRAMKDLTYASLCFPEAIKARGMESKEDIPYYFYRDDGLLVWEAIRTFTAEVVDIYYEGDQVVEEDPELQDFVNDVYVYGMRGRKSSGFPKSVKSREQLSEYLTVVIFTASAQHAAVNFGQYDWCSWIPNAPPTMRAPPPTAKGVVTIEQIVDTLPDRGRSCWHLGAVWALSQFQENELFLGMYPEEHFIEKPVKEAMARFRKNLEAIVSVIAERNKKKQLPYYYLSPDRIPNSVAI
The experiment can be described thus: Cell-free 5-LOX activity (isolated human recombinant enzyme).

Experiment [2] concerns the target T1, 5-LOX. Briefly: 5-LOX product formation in activated PMNL.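 Also: freshly isolated human PMNL in PBS pH 7.4 plus glucose, preincubated 10 min at 37 °C with compound, 5-LOX products (all-trans LTB4 isomers, 5-HETE) quantified by RP-HPLC.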
Where [3] appears, read: read-out: 5-LOX enzyme residual activity at 1 µM (Table S1).
[4] abbreviates: PMNL, read-out: 5-LOX PMNL residual activity at 3 µM (Table S1).
Setting [5] is: read-out: 5-LOX enzyme residual activity at 1 μM.
The mark [6] stands for this setting: PMNL, read-out: 5-LOX PMNL residual activity at 3 μM.
The mark [7] stands for this setting: read-out: 5-LOX enzyme IC50, isolated human 5-LOX, cell-free, mean ± SEM.
[8] abbreviates: read-out: 5-LOX PMNL IC50, 5-LOX product formation in activated PMNL, mean ± SEM.

Consider `Cc1c(C=O)c(O)c(Cl)c2c1O[C@](C)(CCC[C@H](C)CCC[C@H](C)CCCC(C)C)CC2` [Compound 2, (R)-5-Chloro-6-hydroxy-2,8-dimethyl-2-((4R,8R)-4,8,12-trimethyltridecyl)chromane-7-carbaldehyde], for which the half-maximal inhibitory concentration (IC50) – broadly, the concentration at which inhibition is half-maximal – was more than 1000 nM in experiment [1] and more than 3000 nM in experiment [2]. For the same compound, the remaining activity at 1 µM in experiment [1] (setting [3]) came to 72.9 ± 5.6%. Also, the remaining activity at 3 µM in experiment [2] (setting [4]) was determined as 110 ± 10.7%.
Taken in the same sequence, the figures for `Cc1cc(O)c(C=O)c2c1O[C@](C)(CCC[C@H](C)CCC[C@H](C)CCCC(C)C)CC2` [Compound 3] were more than 1000 nM, more than 3000 nM, 94.6 ± 3.5% and 92.2 ± 6.3%.
Regarding `COCOc1cc(C)c2c(c1C=O)CC[C@@](C)(CCC[C@H](C)CCC[C@H](C)CCCC(C)C)O2` [Compound 4, (R)-6-(Methoxymethoxy)-2,8-dimethyl-2-((4R,8R)-4,8,12-trimethyltridecyl)chromane-5-carbaldehyde], the results for the IC50 in experiment [1] and in experiment [2] were more than 1000 nM and more than 3000 nM, respectively. Moreover, in experiment [1] (setting [3]), the remaining activity at 1 µM is 77.3 ± 17.2%. Besides, the remaining activity at 3 µM in experiment [2] (setting [4]) is 91.9 ± 5.3%.
Taken in the same sequence, the figures for `Cc1cc(O)c(C(=O)O)c2c1O[C@](C)(CCC[C@H](C)CCC[C@H](C)CCCC(C)C)CC2` [Compound 5] were more than 1000 nM, more than 3000 nM, 54.6 ± 5.8% and 80.8 ± 0.6%.
In the same order, the values of `CC(C)=CCC/C(C)=C/CC/C(C)=C/CC[C@]1(C)CCc2c(C=O)c(O)cc(C)c2O1` [Compound 7] are more than 1000 nM, more than 3000 nM, 74.5 ± 4.3% and 87.1 ± 8%.
Take `CC(C)=CCC/C(C)=C/CC/C(C)=C/CC[C@]1(C)CCc2c(C=O)c(O)c(Br)c(C)c2O1` [Compound 8]: the IC50 is more than 1000 nM in experiment [1] and more than 3000 nM in experiment [2]. Besides, in experiment [1] (setting [3]), the remaining activity at 1 µM worked out at 59 ± 5.9%. In addition, in experiment [2] (setting [4]), the remaining activity at 3 µM turned out to be 79.2 ± 16.7%.
For the compound `C/C(=C\CC/C(C)=C/CC[C@]1(C)CCc2cc(O)cc(C)c2O1)CC/C=C(/C=O)CO` [Compound 11], the IC50 worked out at 120 ± 50 nM in experiment [1] and 570 ± 90 nM in experiment [2]. The remaining activity at 1 µM in experiment [1] (setting [3]) was 0.4 ± 0.3%; in experiment [2] (PMNL, read-out: 5-LOX PMNL residual activity at 1 µM (Table S1, cell marked b)), 17.6 ± 1.3%.
As for `Cc1cc(O)cc2c1O[C@](C)(CCCC(C)CCCC(C)CCCC(C)C(=O)O)CC2` (some centres unmarked) [Compound 12b], in experiment [1] (setting [5]), the remaining activity at 1 µM came out at 51.4 ± 3.1%. The remaining activity at 3 µM in experiment [2] (setting [6]) turned out to be 40.8 ± 3.5%.
As to `C/C(=C\CC/C(C)=C/CC[C@]1(C)CCc2cc(O)c(C)c(C)c2O1)CC/C=C(\C)C(=O)O` [Compound 13c], the remaining activity at 1 µM in experiment [1] (setting [5]) stood at 4.1 ± 3.6%. The remaining activity at 3 µM in experiment [2] (setting [6]) amounted to 1.6 ± 1.6%.
For `C/C(=C\CC/C(C)=C/CC[C@]1(C)CCc2cc(O)cc(C)c2O1)CC/C=C/C(=O)O` [Compound 14, (2E,6E,10E)-13-[(2R)-6-Hydroxy-2,8-dimethyl-3,4-dihydro-2H-1-benzopyran-2-yl]-6,10-dimethyltrideca-2,6,10-trienoic Acid], the IC50 worked out at 440 ± 80 nM in experiment [1] (setting [7]) and 2200 ± 140 nM in experiment [2] (setting [8]). In experiment [1] (setting [5]), the remaining activity at 1 µM was found to be 24.5 ± 2.8%. Further, in experiment [2] (setting [6]), the remaining activity at 3 µM came out at 26.9 ± 4.8%.
In the same order, the values of `C/C(=C\CC[C@]1(C)CCc2c(C)c(O)c(C)c(C)c2O1)CC/C=C(\C)CCC(=O)O` [Compound 15a, (4E,8E)-11-((R)-6-Hydroxy-2,5,7,8-tetramethylchroman-2-yl)-4,8-dimethylundeca-4,8-dienoic Acid] are 440 ± 70 nM, 450 ± 120 nM, 11.5 ± 1.8% and 10.6 ± 5.8%.
For `C/C(=C\CC[C@]1(C)CCc2cc(O)cc(C)c2O1)CC/C=C(\C)CCC(=O)O` [Compound 15b, (4E,8E)-11-((R)-6-Hydroxy-2,8-dimethylchroman-2-yl)-4,8-dimethylundeca-4,8-dienoic Acid], the figures for the IC50 in experiment [1] (setting [7]) and in experiment [2] (setting [8]) were 470 ± 140 nM and 2190 ± 400 nM, respectively. Also, the remaining activity at 1 µM in experiment [1] (setting [5]) is 28.8 ± 5.2%. In addition, the remaining activity at 3 µM in experiment [2] (setting [6]) came out at 32 ± 9.8%.
In the same order, the values of `C/C(=C\CC[C@]1(C)CCc2cc(O)cc(C)c2O1)CC/C=C/C(=O)O` [Compound 16, (2E,6E)-9-[(2R)-6-Hydroxy-2,8-dimethyl-3,4-dihydro-2H-1-benzopyran-2-yl]-6-methylnona-2,6-dienoic Acid] are 920 ± 40 nM, more than 3000 nM, 47.3 ± 1.1% and 77 ± 3.9%.
In the same order, the values of `Cc1cc(O)cc2c1O[C@](C)(CC/C=C/C(=O)O)CC2` [Compound 17, (2E)-5-[(2R)-6-Hydroxy-2,8-dimethyl-3,4-dihydro-2H-1-benzopyran-2-yl]pent-2-enoic Acid] are more than 1000 nM, more than 3000 nM, 65.3 ± 25.2% and 101 ± 5.2%.
Taken in the same sequence, the figures for `C/C(=C\CC[C@]1(C)CCc2cc(O)cc(C)c2O1)C(=O)O` [Compound 18, (R,E)-5-(6-Hydroxy-2,8-dimethylchroman-2-yl)-2-methylpent-2-enoic Acid] were more than 1000 nM, more than 3000 nM, 56.4 ± 18.3% and 88.8 ± 6.4%.
Take `C/C(=C\CC[C@]1(C)CCc2c(C)c(O)cc(C)c2O1)CC/C=C(\C)CCCC(C)C(=O)O` (stereo partly drawn) [Compound 19a, (6E,10E)-13-((R)-6-Hydroxy-2,5,8-trimethylchroman-2-yl)-2,6,10-trimethyltrideca-6,10-dienoic Acid]: the figures for the half-inhibitory concentration (IC50) in experiment [1] (setting [7]) and in experiment [2] (setting [8]) were 810 ± 80 nM and 810 ± 330 nM, respectively. Besides, in experiment [1] (setting [5]), the remaining activity at 1 µM was 41.2 ± 6.2%. The remaining activity at 3 µM in experiment [2] (setting [6]) came out at 14.2 ± 6.5%.
Turning to `C/C(=C\CC[C@]1(C)CCc2cc(O)cc(C)c2O1)CC/C=C(\C)CCCC(C)C(=O)O` (stereo partly drawn) [Compound 19b, (6E,10E)-13-((R)-6-Hydroxy-2,8-dimethylchroman-2-yl)-2,6,10-trimethyltrideca-6,10-dienoic Acid], the remaining activity at 1 µM in experiment [1] (setting [5]) turned out to be 7.4 ± 2.7%. Besides, the remaining activity at 3 µM in experiment [2] (setting [6]) worked out at 3.8 ± 0.8%. Also, the 50% inhibitory concentration (IC50) in experiment [2] (setting [8]) was determined as 610 ± 150 nM.
Consider `COc1cc(C)c2c(c1)CC[C@@](C)(CC/C=C(\C)CC/C=C(\C)CCCC(C)C(=O)O)O2` (stereo partly drawn) [Compound 20, (6E,10E)-13-((R)-6-Methoxy-2,8-dimethylchroman-2-yl)-2,6,10-trimethyltrideca-6,10-dienoic Acid], for which the IC50 in experiment [1] (setting [7]) is more than 1000 nM. Also, in experiment [1] (setting [5]), the remaining activity at 1 µM was 98.1 ± 1.3%.
`COC(=O)C(C)CCC/C(C)=C/CC/C(C)=C/CC[C@]1(C)CCc2cc(O)cc(C)c2O1` (stereo partly drawn) [Compound 21, (6E,10E)-Methyl-13-((R)-6-hydroxy-2,8-dimethylchroman-2-yl)-2,6,10-trimethyltrideca-6,10-dienoate]: the IC50 in experiment [1] (setting [7]) was 170 ± 10 nM; in experiment [2] (setting [8]), 1140 ± 390 nM. Further, the remaining activity at 1 µM in experiment [1] (setting [5]) stood at 5.8 ± 1.7%. Moreover, in experiment [2] (setting [6]), the remaining activity at 3 µM amounted to 14.1 ± 6%.
As to `COC(=O)C(C)CCC/C(C)=C/CC/C(C)=C/CC[C@]1(C)CCc2cc(OC)cc(C)c2O1` (stereo partly drawn) [Compound 22, (6E,10E)-Methyl-13-((R)-6-methoxy-2,8-dimethylchroman-2-yl)-2,6,10-trimethyltrideca-6,10-dienoate], the IC50 in experiment [1] (setting [7]) was more than 1000 nM. For the same compound, the remaining activity at 1 µM in experiment [1] (setting [5]) is 88.7 ± 4.3%.
As to `C/C(=C\CC/C(C)=C/CC[C@]1(C)CCc2c(CN(C)C)c(O)cc(C)c2O1)CC/C=C(\C)C(=O)O` [Compound 23], the values for the IC50 in experiment [1] (setting [7]) and in experiment [2] (setting [8]) were 70 ± 20 nM and 2060 ± 450 nM, respectively. For the same compound, the remaining activity at 1 µM in experiment [1] (setting [5]) amounted to 7.9 ± 3.6%. In addition, the remaining activity at 3 µM in experiment [2] (setting [6]) amounted to 33.1 ± 8%.
Regarding `C/C(=C\CC[C@]1(C)CCc2cc(O)cc(C)c2O1)CCC(O)C(C)(O)CCC=C(CO)CO` (some centres unmarked) [Compound 30], in experiment [1] (setting [7]), the IC50 was 380 ± 110 nM. In addition, in experiment [1] (setting [5]), the remaining activity at 1 µM was found to be 12.2 ± 4.1%.
Take `C/C(=C\CC/C(C)=C/CC[C@]1(C)CCc2cc(OCC(N)=O)cc(C)c2O1)CCC=C(CO)CO` [Compound 32, 2-(((R)-2-((3E,7E)-13-Hydroxy-12-(hydroxymethyl)-4,8-dimethyltrideca-3,7,11-trien-1-yl)-2,8-dimethylchroman-6-yl)oxy)acetamide]: the half-inhibitory concentration (IC50) in experiment [1] (setting [7]) was more than 1000 nM. Further, in experiment [1] (setting [5]), the remaining activity at 1 µM worked out at 99.8 ± 5.6%.
For the compound `COc1ccc(C2OCC(=CCC/C(C)=C/CC/C(C)=C/CC[C@]3(C)CCc4cc(O)cc(C)c4O3)CO2)cc1OC` (some centres unmarked) [Compound 44], the IC50 in experiment [1] is 210 ± 140 nM. Further, the remaining activity at 1 µM in experiment [1] (setting [5]) amounted to 12.7 ± 9.3%.
As to `COc1ccc(C2OCC(=CCC/C(C)=C/CC/C(C)=C/CC[C@]3(C)CCc4cc(OCCCC(=O)O)cc(C)c4O3)CO2)cc1OC` (stereo partly drawn) [Compound 45, 4-(((2R)-2-((3E,7E)-11-(2-(3,4-Dimethoxyphenyl)-1,3-dioxan-5-ylidene)-4,8-dimethylundeca-3,7-dien-1-yl)-2,8-dimethylchroman-6-yl)oxy)butanoic Acid], in experiment [1], the IC50 is more than 1000 nM. Moreover, the remaining activity at 1 µM in experiment [1] (setting [5]) stood at 83 ± 7.6%.
